Patent US7265154B2, “Valproic acid and derivatives thereof as histone deacetylase inhibitors” (Georg-Speyter-Haus Chemotherapeutisches Forschungsinstitut, priority 2000, dated 2007)
“And” between values parts separate entries of the source, which are not always exact repeats. Equal values may be shown once. Square brackets hold non-standard residues; d marks the D form. Peptide text beside a SMILES is read from it. Aoe = N[C@@H](CCCCCC(=O)[C@@H]1CO1)C(=O)O

Key:
[1] = tested on: F9 teratocarcinoma cells; experiment: Nuclear AP-2 protein as differentiation marker, Western blot; format: cell-based; conditions: 48 h; VPA 1 mM, sodium butyrate 1 mM, trichostatin A 30 nM
Description: Nuclear extracts were separated on a 9% SDS polyacrylamide gel. AP-2 protein was detected by Western blot analysis using a rabbit polyclonal antibody (Santa Cruz, Cat.-No.: SC-184) at a dilution of 1/1000 in Tris buffered saline containing 3% non-fat dry milk and 0.05% Tween 20.

[2] = molecular target: T1, PPARδ ligand binding domain (glucocorticoid receptor hybrid) (UniProt P04150+P35396); experiment: PPARδ-glucocorticoid receptor hybrid reporter gene assay (alkaline phosphatase) in CHO cells; format: cell-based; conditions: 40 h, cPGI 5 μM with VPA 1 or 2 mM or TSA 300 nM
T1 construct: expressed in transfected cells; host or cells: CHO subclone with MMTV-LTR alkaline phosphatase reporter
T1 sequence (P04150+P35396 with tags, fused parts or gaps): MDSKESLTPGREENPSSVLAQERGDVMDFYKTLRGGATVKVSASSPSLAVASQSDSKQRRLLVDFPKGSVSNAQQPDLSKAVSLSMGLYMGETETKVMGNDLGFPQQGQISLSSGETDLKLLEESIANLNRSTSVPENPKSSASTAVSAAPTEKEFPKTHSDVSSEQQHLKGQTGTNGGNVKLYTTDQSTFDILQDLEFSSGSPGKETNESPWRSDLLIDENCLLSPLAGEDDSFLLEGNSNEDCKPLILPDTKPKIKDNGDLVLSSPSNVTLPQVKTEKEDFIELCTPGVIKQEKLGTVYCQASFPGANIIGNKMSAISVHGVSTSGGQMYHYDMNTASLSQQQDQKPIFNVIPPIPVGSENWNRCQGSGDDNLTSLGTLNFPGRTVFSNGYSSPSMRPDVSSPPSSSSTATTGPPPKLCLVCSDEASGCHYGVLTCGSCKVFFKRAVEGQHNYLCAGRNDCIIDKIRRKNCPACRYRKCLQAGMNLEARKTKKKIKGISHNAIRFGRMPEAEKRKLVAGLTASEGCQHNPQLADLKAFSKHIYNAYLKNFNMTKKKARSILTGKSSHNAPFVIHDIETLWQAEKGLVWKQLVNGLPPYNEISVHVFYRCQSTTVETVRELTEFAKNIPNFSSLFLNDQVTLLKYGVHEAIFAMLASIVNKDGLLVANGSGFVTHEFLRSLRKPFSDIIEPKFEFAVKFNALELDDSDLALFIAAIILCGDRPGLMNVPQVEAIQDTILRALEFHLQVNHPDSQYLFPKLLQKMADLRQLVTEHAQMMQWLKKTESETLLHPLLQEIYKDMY
Description: A reporter gene cell line for activation of the PPARδ ligand binding domain was constructed in CHO cells. […] Activation of the PPARδ ligand binding domain in these cells induces expression of the alkaline phosphatase reporter gene which is detectable by an enzymatic assay from the cell culture supernatant. […] Reporter gene activity was monitored by an enzymatic assay (alkaline phosphatase).

[3] = tested on: histones H3 and H4 in F9 cells; experiment: Accumulation of hyperacetylated histones H3 and H4, Western blot; format: cell-based; conditions: whole cell extracts, VPA in the range of therapeutic serum levels, 16 h
Description: Histone deacetylase inhibitors induce the accumulation of N-terminally hyperacetylated histones H3 and H4. These acetylated histones can be detected by Western blot analysis of whole cell extracts or of histone preparations from histone deacetylase inhibitor-treated cells using antibodies specific for the acetylated N-terminal lysine residues of histones H3 and H4.
These acetylated histones can be detected by Western blot analysis in cell extracts of appropriately treated cells.
(A) For the time course analysis F9 cells were seeded into 6-well culture dishes 30 h before the intended time point of analysis. […] DNA of collected samples was sheared by sonication and samples were separated on a 15% denaturing polyacrylamide gel. Acetylated histones H3 and histone H4 were detected by Western blot analysis using commercially available antibodies (Upstate Biotechnology) specific for the acetylated forms of histones (Ac-H3, Cat-Nr.: 06-599; Ac-H4, Cat-Nr.: 06-598). Equal loading of the lanes was confirmed by staining a part of the polyacrylamide gel by Coomassie blue.
Whole cell extracts were prepared 16 h after treatment as described above. Analysis for acetylated histones H3 and H4 was performed as described in (A).

[4] = tested on: Gal4 fusion proteins of TR, PPARδ, RAR, N—CoR and AML/ETO in Hela cells; experiment: Gal4 fusion protein transcriptional repression assay, UAS TK luciferase reporter; format: cell-based; conditions: 24 h, VPA 1 mM, Trapoxin 10 nM, TSA 100 nM
Description: The transcriptional assay for repressor activity exploits activation and derepression of a Gal4-dependent reporter gene. This assay can be performed either by transient transfection of mammalian cell lines (e.g. HeLa, 293T, CV-1) or with specifically constructed permanent cell lines. Transcription factors such as thyroid hormone receptor, PPARδ, retinoic acid receptor, N—COR and AML/ETO repress transcription when they bind to a promoter containing UAS elements as fusion proteins with the heterologous DNA-binding domain of the yeast Gal4 protein. […] HDAC inhibitors induce relief of this repression which can be detected as an increase in reporter gene activity (e.g. by luciferase assay).
The transcription factors thyroid hormone receptor (TR), peroxisome proliferator activated receptor □ (PPARδ), retinoic acid receptor (RAR), the corepressor N—CoR and the AML/ETO fusion protein repress transcription when they bind to a promoter containing UAS sites (Gal4 response element) as fusion proteins with the heterologous DNA binding domain of the yeast Gal4 protein. […] Transcriptional repression is measured as luciferase activity relative to the baseline of cells transfected with an expression plasmid for the Gal4 DNA binding domain alone (FIG. 2).

[5] = tested on: SW-1116 colon cancer cells; experiment: Morphological evaluation for cell death, SW-1116; format: cell-based, human; conditions: 1 mM VPA
Description: (§1) The reduction in biomass could indicate cell loss due to cell death and/or differentiation associated cell cycle arrest. Quantitative parameters, e.g. the loss of biomass, was determined in 30 human cancer cell lines (FIG. 8 e) and twelve examples of dose-response curves are shown, e.g. BT-549 breast cancer cells (1), estrogen dependent ZR-75 breast cancer cells (2), DMS-114 small cell lung cancer cells (3), NCl—H226 non-small cell lung cancer cells (4), SK-MEL-28 skin cancer cells (5), OVCAR-3 ovarian cancer cells (6), HUP-T3 pancreatic cancer cells (7), DU-145 prostate cancer cells (8), DETROIT-562 head and neck cancer cells, LS-174 colon cancer cells (10), A-172 brain cancer cells (11) and HL-60 leukemia cells (12) (FIGS. 8a-d). All cells were evaluated for morphological signs of cell death and/or differentiation.

[6] = tested on: MT-450 breast cancer cells; experiment: 3H-thymidine incorporation in MT-450 cells; format: cell-based; conditions: 1 mM VPA, 72 h, then 1 h 3H-thymidine
Description: (§2) Cell differentiation is associated with cell cycle arrest, morphological alterations and the appearance of expression of markers of the differentiated phenotype. Morphological alterations where determined by microscopic evaluation of F9 and HT-29 cells. One parameter of differentiation, the cell cycle arrest, was shown in F9 teratocacrcinoma, estrogen independent MT-450 breast cancer and HT-29 colonic carcinoma cells by means of the reduced incorporation of ^3H-thymidine into cultured cells. […] 37 kBq of ^3H-thymidine were added for additional 12 h of culture. MT-450 cells were cultured for 72 h prior to a 1 h ^3H-thymidine labelling period. Incorporation of ^3H-thymidine into DNA was determined by automatic cell harvesting and liquid scintillation counting. […] The dose-response for the reduction of thymidine incorporation into HT-29 cells (FIG. 5A) was determined by the same experimental procedure. In addition, the induction of a cell differentiation marker was shown in F9 teratocarcinoma cells (FIG. 5B).

[7] = tested on: breast, ovarian, squamous cell and renal carcinoma cells; experiment: Cell viability assay (MTT); format: cell-based; conditions: 1 or 3 mM, 40 h or 70 h
Description: Human MDA-MB468, MDA-MB453 and SKBR3 breast carcinoma cells, A431 squamous cell carcinoma cells, and SKOV3 ovarian carcinoma cells were maintained in Dulbecco's modified Eagle's medium (DMEM, BioWhittaker, Verviers, Belgium) supplemented with 10% heat inactivated fetal bovine serum (FBS), 2 mM L-glutamine, 100 units/ml penicillin, and 100 μg/ml streptomycin. Human MCF7 breast carcinoma cells were grown in RPMI medium supplemented as described above.
Renal cell carcinoma (Renca) cells stably transfected with plasmid pZeoSV2/lacZ encoding E. coli β-galactosidase (Renca-lacZ cells) (Maurer-Gebhard et al., Cancer Res. 58: 2661-2666, 1998) were grown in RPMI-1640 medium supplemented with 8% FBS, 2 mM L-glutamine, 100 U/ml penicillin, 100 μg/ml streptomycin, 0.25 mg/ml Zeocin. […]
Tumor cells were seeded in 96 well plates at a density of 1×10^4 cells/well in normal growth medium. […] After solubilization of the formazan product, the absorption at 590 nm was determined in a microplate reader (Dynatech, Denkendorf, Germany) and the relative amount of viable cells in comparison to cells grown without the addition of valproic acid was calculated.

[8] = tested on: human cancer cell cultures; experiment: Reduction of total cellular biomass (Sulforhodamine B); format: cell-based; conditions: 48 hours VPA
Description: Background OD of complete medium with 5% FBS fixed and stained as described above was also determined in 12 separate wells.

[9] = tested on: HT-29 colonic carcinoma cells; experiment: 3H-thymidine incorporation in HT-29 cells; format: cell-based; conditions: 1 mM VPA, 36 h, then 12 h 3H-thymidine
Description: as §2

[10] = tested on: F9 teratocarcinoma cells; experiment: 3H-thymidine incorporation in F9 cells; format: cell-based; conditions: 1 mM VPA, 36 h, then 12 h 3H-thymidine
Description: as §2

[11] = tested on: DU-145 prostate cancer cells; experiment: Morphological evaluation for differentiation, DU-145; format: cell-based, human; conditions: VPA treatment
Description: as §1

[12] = tested on: PC-3 cells; experiment: Morphological evaluation for differentiation, PC-3; format: cell-based, human; conditions: VPA treatment
Description: as §1

[13] = tested on: U87MG cells; experiment: Morphological evaluation for differentiation, U87MG; format: cell-based, human; conditions: VPA treatment
Description: as §1

CC(/C=C/C(=O)NO)=C\[C@@H](C)C(=O)c1ccc(N(C)C)cc1 [TSA, trichostatin A]
Appearance of nuclear AP-2 protein [1]: induce nuclear AP-2 protein | Activation of the reporter gene together with the PPARδ ligand cPGI [2]: synergistic activation | Accumulation of hyperacetylated histones H3 and H4 [3]: induce the accumulation of hyperacetylated histones H3 and H4 | Relief of transcriptional repression (increase in reporter gene activity) [4]: relief of repression

CCCC(=O)[O-].[Na+] [sodium butyrate]
Appearance of nuclear AP-2 protein [1]: weak | Accumulation of hyperacetylated histones H3 and H4 [3]: induce the accumulation of hyperacetylated histones H3 and H4

CCCC(CCC)C(=O)O [VPA, 2-n-propylpentanoic acid]
Cell death by morphological signs [5]: most cells were dying | Reduction of the rate of thymidine incorporation [6]: 63±8% | Viability of tumor cells (MTT) [7]: reduces the viability | Appearance of nuclear AP-2 protein [1]: induce nuclear AP-2 protein | Total cellular biomass [8]: reduces the total cellular biomass | Reduction of the rate of thymidine incorporation [9]: 52±8% | Reduction of the rate of thymidine incorporation [10]: 48±5% and 48% | Change of cell morphology [11]: change their normal round morphology to a long fibroblast-like shape | Change of cell morphology [12]: change their normal round morphology to a long fibroblast-like shape | Accumulation of hyperacetylated histones H3 and H4 [3]: induce hyperactylation of histones H3 and H4 | Change of cell morphology [13]: increase in length and develop spider-like filamentous extensions

O=C1N[C@@H](Cc2ccccc2)C(=O)N2CCC[C@@H]2C(=O)N[C@@H](CCCCCC(=O)[C@@H]2CO2)C(=O)N[C@H]1Cc1ccccc1 [Trapoxin, trapoxin] (cyclo(FF[dP][Aoe]))
Relief of transcriptional repression (increase in reporter gene activity) [4]: relief of repression
